The values below come from ChEMBL document CHEMBL1157604 (J Med Chem, 2010).

Calls of active or inactive are those of the source. No cut-off for these calls is given here.

The IC50 is the concentration that gives 50% inhibition. A low value points to greater potency.

Assay [1] addresses Sodium-dependent dopamine transporter (Homo sapiens, UniProt Q01959). The experiment in a line: Inhibition of [3H]dopamine uptake at human DAT expressed in HEK293 cells. The class given is cell-based.
For assay [2], the target named is Sodium-dependent noradrenaline transporter (Homo sapiens, UniProt P23975). As to the kind of experiment: Inhibition of [3H]norepinephrine uptake at human NET expressed in HEK293 cells. The class given is cell-based.
Chain of Sodium-dependent noradrenaline transporter (P23975 whole entry): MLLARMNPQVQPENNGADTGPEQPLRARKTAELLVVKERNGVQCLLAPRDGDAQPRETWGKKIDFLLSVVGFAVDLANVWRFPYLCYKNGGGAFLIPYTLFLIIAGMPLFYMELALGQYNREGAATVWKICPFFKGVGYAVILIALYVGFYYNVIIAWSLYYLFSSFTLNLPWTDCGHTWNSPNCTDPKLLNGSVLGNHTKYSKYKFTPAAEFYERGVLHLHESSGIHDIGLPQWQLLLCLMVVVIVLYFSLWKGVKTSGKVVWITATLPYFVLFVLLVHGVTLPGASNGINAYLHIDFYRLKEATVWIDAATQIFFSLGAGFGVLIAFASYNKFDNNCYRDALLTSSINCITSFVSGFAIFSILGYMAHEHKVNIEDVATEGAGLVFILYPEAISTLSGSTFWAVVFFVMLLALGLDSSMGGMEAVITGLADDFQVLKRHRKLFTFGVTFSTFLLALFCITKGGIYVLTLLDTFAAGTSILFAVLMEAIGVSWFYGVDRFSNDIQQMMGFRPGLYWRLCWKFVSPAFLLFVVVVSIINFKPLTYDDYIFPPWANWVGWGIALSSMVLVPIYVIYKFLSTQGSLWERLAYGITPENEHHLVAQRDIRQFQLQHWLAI
Assay [3] has as its target Neuronal acetylcholine receptor; alpha3/beta4 (Homo sapiens) (UniProt P30926+P32297). As to the kind of experiment: Intrinsic activity at alpha3beta4 nAChR receptor in human SH-SY5Y cells assessed as 86Rb+ efflux at 5 to 100 uM by liquid scintillation counting. The assay is classed as cell-based.
For assay [4], the target named is Neuronal acetylcholine receptor; alpha4/beta2 (Homo sapiens) (UniProt P17787+P43681). As to the kind of experiment: Intrinsic activity at human alpha4beta2 nAChR receptor expressed in human SH-SY5Y cells assessed as 86Rb+ efflux at 5 to 100 uM by liquid scintillation counting. The assay is classed as cell-based.
In assay [5] the target is Neuronal acetylcholine receptor; alpha4/beta4 (Homo sapiens) (UniProt P30926+P43681). The experiment in a line: Intrinsic activity at human alpha4beta4 nAChR receptor expressed in human SH-SY5Y cells assessed as 86Rb+ efflux at 5 to 100 uM by liquid scintillation counting. The class given is cell-based.
In assay [6] the target is Acetylcholine receptor; alpha1/beta1/delta/gamma (Homo sapiens) (UniProt P02708+P07510+P11230+Q07001). As to the kind of experiment: Intrinsic activity at alpha-1-beta-1-gamma-delta nAChR receptor expressed in human TE671/RD cells assessed as 86Rb+ efflux at 5 to 100 uM by liquid scintillation counting. The assay is classed as cell-based.
The species named for assay [7] is Mus musculus. As to the kind of experiment: Antinociceptive activity in ICR mouse D'Amour and Smith model of pain assessed as inhibition of nicotine-induced response by tail-flick test. The class given is functional. On the technique in general: Thermal pain tests record how soon the animal reacts.
For assay [8], the species on record is Mus musculus. The experiment in a line: Antinociceptive activity in ICR mouse assessed as inhibition of nicotine-induced response by hotplate test. The class given is functional.
The species entered for assay [9] is Mus musculus. The experiment in a line: Effect on behavioral activity in ICR mouse assessed as inhibition of nicotine-induced locomotory response by locomotor assay. The assay is classed as functional.
The species named for assay [10] is Mus musculus. The experiment in a line: Effect on body temperature in ICR mouse assessed as inhibition of nicotine-induced hypothermic response. The class given is functional.

Chain of Sodium-dependent dopamine transporter (Q01959 whole entry): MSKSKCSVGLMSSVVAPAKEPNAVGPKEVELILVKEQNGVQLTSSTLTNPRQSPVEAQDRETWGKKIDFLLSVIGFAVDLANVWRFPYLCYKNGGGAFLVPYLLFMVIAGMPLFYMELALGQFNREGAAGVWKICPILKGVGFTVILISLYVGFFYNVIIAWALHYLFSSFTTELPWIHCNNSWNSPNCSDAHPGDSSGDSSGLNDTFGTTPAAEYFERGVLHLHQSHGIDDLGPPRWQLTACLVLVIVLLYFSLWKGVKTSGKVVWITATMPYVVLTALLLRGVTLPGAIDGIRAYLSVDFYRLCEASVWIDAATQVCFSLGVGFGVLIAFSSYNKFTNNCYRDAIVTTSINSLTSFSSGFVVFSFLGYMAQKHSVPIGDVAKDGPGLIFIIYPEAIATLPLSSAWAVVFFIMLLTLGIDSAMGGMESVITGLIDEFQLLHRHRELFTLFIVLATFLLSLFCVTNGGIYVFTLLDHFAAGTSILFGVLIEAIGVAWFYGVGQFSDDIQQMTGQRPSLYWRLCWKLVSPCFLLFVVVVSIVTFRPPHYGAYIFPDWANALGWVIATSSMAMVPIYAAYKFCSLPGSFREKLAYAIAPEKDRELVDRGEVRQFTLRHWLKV

For `CC(NC1CCCC1)C(=O)c1cccc(Br)c1` (stereo not given), the IC50 in assay [1] was 845 nM; in [2] it was 2530 nM. Moreover, the outcome in assay [3], in assay [4], in [5] and in [6] was inactive. In addition, the AD50 entry in the assay filed under Mus musculus [7], in the assay filed under Mus musculus [8], in the assay filed under Mus musculus [9] and in the assay listed under Mus musculus [10] was “inactive” in each case.
`CC(NC(C)(C)C)C(=O)c1cccc(Cl)c1` (stereo not given) [BUPROPION]: the result in assay [3], in [4], in [5] and in assay [6] was inactive. Moreover, the AD50 in the assay listed under Mus musculus [7] amounted to 1.2 mg/kg; in the assay filed under Mus musculus [8] it was 15 mg/kg; in the assay filed under Mus musculus [10], 9.2 mg/kg.
In assay [1], `CCC(NC(C)(C)C)C(=O)c1cccc(Cl)c1` (stereo not given) returned an IC50 of 209 nM. The outcome in assay [3], in assay [4], in assay [5] and in [6] was inactive. The AD50 was 0.5 mg/kg in the assay listed under Mus musculus [7] and 11.7 mg/kg in the assay listed under Mus musculus [9]. Also, the AD50 result in the assay filed under Mus musculus [8] and in the assay listed under Mus musculus [10] was “inactive” each time.
Regarding `CC(NC(C)(C)C)C(=O)c1ccc(F)c(F)c1` (stereo not given), the IC50 amounted to 7980 nM in assay [1] and 6480 nM in assay [2]. Also, the result in assay [3], in assay [4], in [5] and in assay [6] was inactive. For the same compound, in the assay listed under Mus musculus [7], the AD50 amounted to 0.05 mg/kg. Further, the AD50 result in the assay listed under Mus musculus [8], in the assay filed under Mus musculus [9] and in the assay listed under Mus musculus [10] was “inactive” in each case.
With `CC(NC1CCCC1)C(=O)c1cccc([N+](=O)[O-])c1` (stereo not given), the result in [3], in assay [4], in assay [5] and in [6] was inactive. In addition, the AD50 result in the assay filed under Mus musculus [7], in the assay filed under Mus musculus [8], in the assay filed under Mus musculus [9] and in the assay filed under Mus musculus [10] was “inactive” in each case.
Take `Cc1cc(C(=O)C(C)NC(C)(C)C)ccc1Br` (stereo not given): the IC50 in assay [2] is 7250 nM. For the same compound, the result in [3], in assay [4], in [5] and in [6] was inactive. The AD50 in the assay listed under Mus musculus [7] worked out at 0.015 mg/kg. The AD50 entry in the assay filed under Mus musculus [8], in the assay filed under Mus musculus [9] and in the assay filed under Mus musculus [10] was “inactive” throughout.
Regarding `CC(NC1CCCC1)C(=O)c1cccc(Cl)c1` (stereo not given), the outcome in [3], in assay [4], in assay [5] and in assay [6] was inactive. Besides, the AD50 in the assay filed under Mus musculus [7] was found to be 0.014 mg/kg. For the same compound, the AD50 result in the assay listed under Mus musculus [8], in the assay listed under Mus musculus [9] and in the assay listed under Mus musculus [10] was “inactive” each time.
In the case of `CC(C(=O)c1cccc(Cl)c1)N(C)C` (stereo not given), the figures for the IC50 in assay [1] and in assay [2] were 1750 nM and 1520 nM, respectively. For the same compound, the outcome in [3], in assay [4], in assay [5] and in [6] was inactive. The AD50 in the assay filed under Mus musculus [7] is 5.2 mg/kg. Further, the AD50 entry in the assay filed under Mus musculus [8], in the assay listed under Mus musculus [9] and in the assay filed under Mus musculus [10] was “inactive” each time.
In the case of `CC(NC(C)(C)C)C(=O)c1cccs1` (stereo not given), the result in assay [3], in assay [4], in [5] and in assay [6] was inactive. Also, the AD50 in the assay filed under Mus musculus [7] was found to be 0.077 mg/kg. Also, the AD50 result in the assay filed under Mus musculus [8], in the assay listed under Mus musculus [9] and in the assay filed under Mus musculus [10] was “inactive” throughout.
As to `Cc1ccc(C(=O)C(C)NC(C)(C)C)cc1` (stereo not given), the IC50 in [1] came out at 1950 nM. The outcome in [3], in [4], in assay [5] and in [6] was inactive. Moreover, the AD50 in the assay listed under Mus musculus [7] was found to be 0.09 mg/kg; in the assay filed under Mus musculus [8] it was 7.75 mg/kg; in the assay filed under Mus musculus [9], 11.8 mg/kg; in the assay listed under Mus musculus [10], 8.8 mg/kg.
In assay [2], `CC(NC(C)(C)C)C(=O)c1cc(Cl)cc(Cl)c1` (stereo not given) returned an IC50 of 14000 nM. For the same compound, the result in [3], in assay [4], in assay [5] and in assay [6] was inactive. Further, the results for the AD50 in the assay listed under Mus musculus [7] and in the assay listed under Mus musculus [8] were 0.028 mg/kg and 4.3 mg/kg, respectively. The AD50 result in the assay listed under Mus musculus [9] and in the assay filed under Mus musculus [10] was “inactive” in each case.
For the compound `CC(NC1CCCC1)C(=O)c1cccc(F)c1` (stereo not given), the values for the IC50 in [1] and in assay [2] were 693 nM and 2850 nM, respectively. Besides, the result in assay [3], in assay [4], in [5] and in [6] was inactive. In addition, the AD50 result in the assay filed under Mus musculus [7], in the assay listed under Mus musculus [8], in the assay filed under Mus musculus [9] and in the assay filed under Mus musculus [10] was “inactive” in each case.
In turn, `CC(C(=O)c1cccc([N+](=O)[O-])c1)N1CCCCC1` (stereo not given) gave an IC50 in assay [1] of 10000 nM. In addition, the result in [3], in assay [4], in assay [5] and in assay [6] was inactive. Also, the AD50 entry in the assay filed under Mus musculus [7], in the assay filed under Mus musculus [8], in the assay filed under Mus musculus [9] and in the assay filed under Mus musculus [10] was “inactive” each time.
On to `CC(NC(C)(C)C)C(=O)c1cccc(F)c1` (stereo not given), for which the IC50 in [1] stood at 2320 nM; in [2] it was 6500 nM. Also, the outcome in assay [3], in [4], in assay [5] and in assay [6] was inactive. Besides, the AD50 result in the assay filed under Mus musculus [7], in the assay filed under Mus musculus [8], in the assay listed under Mus musculus [9] and in the assay filed under Mus musculus [10] was “inactive” throughout.
As to `CC(NC(C)(C)C)C(=O)c1cccc(Br)c1` (stereo not given), the results for the IC50 in assay [1] and in assay [2] were 511 nM and 5600 nM, respectively. Further, the outcome in assay [3], in [4], in assay [5] and in assay [6] was inactive. The AD50 was found to be 0.12 mg/kg in the assay listed under Mus musculus [7], 14.9 mg/kg in the assay filed under Mus musculus [8], 27.1 mg/kg in the assay filed under Mus musculus [9] and 11.5 mg/kg in the assay filed under Mus musculus [10].
`Cc1cccc(C(=O)C(C)NC(C)(C)C)c1` (stereo not given) came in with an IC50 in [2] of 6200 nM. In addition, the result in assay [3], in [4], in [5] and in assay [6] was inactive. For the same compound, the AD50 in the assay listed under Mus musculus [7] is 0.05 mg/kg; in the assay filed under Mus musculus [8], 6.8 mg/kg; in the assay listed under Mus musculus [9] it was 4.3 mg/kg; in the assay listed under Mus musculus [10], 7.8 mg/kg.
For the compound `Cc1ccc(C(=O)C(C)NC(C)(C)C)cc1Cl` (stereo not given), the IC50 in assay [1] is 410 nM; in assay [2], 2040 nM. The outcome in assay [3], in assay [4], in assay [5] and in [6] was inactive. Further, the AD50 in the assay listed under Mus musculus [7] is 0.2 mg/kg; in the assay listed under Mus musculus [8], 7.2 mg/kg; in the assay listed under Mus musculus [9], 11 mg/kg; in the assay listed under Mus musculus [10] it was 10 mg/kg.
Regarding `CC(NC(C)(C)C)C(=O)c1cccc([N+](=O)[O-])c1` (stereo not given), the result in assay [3], in [4], in [5] and in assay [6] was inactive. The AD50 entry in the assay filed under Mus musculus [7], in the assay listed under Mus musculus [8], in the assay filed under Mus musculus [9] and in the assay filed under Mus musculus [10] was “inactive” throughout.
As to `COc1cccc(C(=O)C(C)NC(C)(C)C)c1` (stereo not given), the IC50 in assay [1] stood at 3620 nM. For the same compound, the outcome in assay [3], in [4], in [5] and in assay [6] was inactive. For the same compound, the AD50 in the assay listed under Mus musculus [7] is 1.6 mg/kg. In addition, the AD50 entry in the assay filed under Mus musculus [8], in the assay listed under Mus musculus [9] and in the assay filed under Mus musculus [10] was “inactive” each time.
As to `CC(CNC(C)(C)C)C(=O)c1cccc(Cl)c1` (stereo not given), the outcome in [3], in assay [4], in [5] and in [6] was inactive. The AD50 is 10.5 mg/kg in the assay listed under Mus musculus [7] and 16 mg/kg in the assay listed under Mus musculus [10]. Besides, the AD50 entry in the assay listed under Mus musculus [8] and in the assay listed under Mus musculus [9] was “inactive” each time.
